Reference: patent US10308682B2, “Inhibition of tumor growth with aggregates of small molecules” (BRANDEIS UNIVERSITY, priority 2013, dated 2019)

Columns and labels:
[1] = Thioflavin T fluorescence quantification of aggregates of 1; type: physicochemical; conditions: ThT emission, PBS buffer
[2] = Influence of surfactant Triton X-100 on hydrogel of 1; type: physicochemical; conditions: 1 at 10 mM
Description: FIG. 14 depicts the influence of a surfactant on self-assembly of 1. Triton X-100 was mixed with 1 (10 mM) before and after hydrogel formation. The hydrogel of 1 can tolerate up to 0.1% Triton X-100. Treated with 0.1% Triton X-100, the fibrillar aggregates of 1 tend to cross-link with each other instead of randomly dispersing, but the width of fibrillar aggregates remains unchanged.

HeLa cells = test: Cell migration assay of HeLa cells; type: cell-based; conditions: 18 h
Description: FIG. 3 depicts the response of cancer cells toward molecular aggregates of 1. (a) Intracellular concentration of 1 in HeLa cells treated with 1 for 12 h at different temperatures measure by LC-MS (left bar=37° C.; right bar=4° C.). (b) Confocal images of FITC annexin V and PI stained HeLa cells without incubation with 1 (live cells), HeLa cells treated with 400 μM of 1 for 36 h, and necrotic HeLa cells (induced by DMSO). Scale bar=20 μm. (c) Fluorescence emission of 7-AAD and 1 in cell lysate (15,000 cell/mL) at λex=488 nm. (d) Cell cycle analysis, by flow cytometry, of HeLa cells treated with 0, 300 or 400 μM of 1 for 24 h. Depletion of G2/M phase occurs in cells treated with 400 μM of 1. (e) Cell migration assay of HeLa cells treated with 0, 300, 400 or 500 μM of 1. The gaps were created on the HeLa cells of 100% confluence in 24 well plates, and measured after incubation for 18 h.
Because apoptosis associates with cell cycle, we examined the effect of the aggregates of 1 on the cell cycle. […] The cell-cycle distribution of the HeLa cells incubated with 400 μM of 1 indicates significant decrease of the peaks of S phase and G2/M phase. […] The slight right shift of the whole spectra results from the overlapping of emission of 7-AAD and 1 (FIG. 3c). But such shift barely hampers the distribution of cell-cycle of the spectra. The aggregates of 1 also delay the migration of the HeLa cells.

O=C(Cc1ccc2ccccc2c1)N[C@@H](Cc1ccccc1)C(=O)N[C@@H](Cc1ccccc1)C(=O)O [Compound 1]
threshold concentration for the formation of molecular aggregates [1]: 320 to 340 µM
Triton X-100 tolerated by the hydrogel [2]: up to 0.1 % Triton X-100
gap coverage by migrating cells (HeLa cells; 300 μM): 47 % of the gaps
gap coverage by migrating cells (HeLa cells; 400 or 500 μM): 27 % of the gaps
